In PMC5795618 (Molecular pharmaceutics, 2017):
Read-outs that look alike come from different tables or passages of the source.

Experiments:
[1] = target: recombinant human GCPII protein (Homo sapiens, UniProt Q04609); experiment: GCPII radioenzymatic activity assay; assay type: biochemical; settings: read-out: IC50(±SEM)
[2] = rats; for tissue/plasma ratio: AUC tissue/AUC plasma of 2-PMPA
[3] = rats; for tissue/plasma ratio: AUC tissue/AUC plasma of 2-PMPA; remark: listed apart in the source
[4] = Plasma stability of 2-PMPA prodrugs, human plasma; assay type: in vitro ADME; settings: 10 μM, 37 °C
GCPII = settings: cited from earlier work
[5] = cited from earlier work
[6] = equivalent 2-PMPA administration, cited from earlier work
[7] = primates, IN 2-PMPA 30 mg/kg; cited from earlier work

recombinant human GCPII protein, sequence (Q04609 whole entry): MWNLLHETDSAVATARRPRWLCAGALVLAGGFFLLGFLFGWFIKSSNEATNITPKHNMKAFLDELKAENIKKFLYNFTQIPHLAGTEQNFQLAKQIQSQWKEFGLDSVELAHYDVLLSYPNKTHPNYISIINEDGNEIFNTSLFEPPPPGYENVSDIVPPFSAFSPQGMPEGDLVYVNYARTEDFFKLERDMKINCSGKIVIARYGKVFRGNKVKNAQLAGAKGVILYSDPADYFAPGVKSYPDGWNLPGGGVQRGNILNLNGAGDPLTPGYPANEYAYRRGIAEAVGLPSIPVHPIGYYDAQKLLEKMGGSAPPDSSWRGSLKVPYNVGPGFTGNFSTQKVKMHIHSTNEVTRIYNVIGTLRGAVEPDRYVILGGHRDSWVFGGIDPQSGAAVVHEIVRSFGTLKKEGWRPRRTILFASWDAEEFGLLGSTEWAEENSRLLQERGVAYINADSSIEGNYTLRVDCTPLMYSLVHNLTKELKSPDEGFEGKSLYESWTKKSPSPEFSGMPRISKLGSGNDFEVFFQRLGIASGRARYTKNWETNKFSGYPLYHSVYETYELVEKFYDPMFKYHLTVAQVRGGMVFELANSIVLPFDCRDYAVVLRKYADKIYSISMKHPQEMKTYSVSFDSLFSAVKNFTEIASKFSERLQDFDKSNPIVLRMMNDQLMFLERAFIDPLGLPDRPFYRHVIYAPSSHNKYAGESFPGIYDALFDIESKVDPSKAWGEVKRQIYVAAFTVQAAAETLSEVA

SMILES: O=C(CCC(CP(=O)(O)O)C(=O)O)OCc1ccccc1 (stereo not shown) [Compound 4]
- IC50 ([1]; GCPII inhibition): 20 ± 1 nM

SMILES: CCCCCCCCOC(=O)CCC(CP(=O)(O)O)C(=O)O (stereo not shown) [Compound 5]
- IC50 ([1]; GCPII inhibition): 2 ± 0.2 nM

SMILES: CCCCOC(=O)CCC(CP(=O)(O)O)C(=O)O (stereo not shown) [Compound 3]
- IC50 ([1]; GCPII inhibition): 1 ± 0.1 nM

SMILES: CC(=O)Oc1ccc(COC(=O)CCC(CP(=O)(O)O)C(=O)O)cc1 (stereo not shown) [Compound 1, γ-(4-acetoxybenzyl)-2-PMPA]
- tissue/plasma ratio ([2]; cerebellum, IN): 0.26
- tissue/plasma ratio ([2]; olfactory bulb, IN): 2.2
- tissue/plasma ratio ([2]; plasma, IN): 1
- improvement of sciatic nerve to plasma ratio over free 2-PMPA ([2]; IN compound 1 versus equivalent dose of 2-PMPA): 7 fold
- intact prodrug AUC in plasma ([2]; IN, 10 mg/kg equivalent): 8.04 µM·h
- intact prodrug in brain or sciatic nerve ([2]; IN, any time point): No intact prodrug was quantifiable
- Cmax ([2]; read-out: intact prodrug Cmax in plasma, IN, 10 mg/kg equivalent): 22 µM
- tissue/plasma ratio ([2]; sciatic nerve, IN): 0.84
- IC50 [1]: 3 ± 0.2 nM
- tissue/plasma ratio ([3]; cerebellum, IV): 0.04
- fold lower 2-PMPA level after IV as compared to IN ([3]; cerebellum): 4 fold
- tissue/plasma ratio ([3]; cortex, IV): 0.04
- fold lower 2-PMPA level after IV as compared to IN ([3]; cortex): 4.5 fold
- tissue/plasma ratio ([3]; olfactory bulb, IV): 0.03
- tissue/plasma ratio ([3]; plasma, IV): 1
- intact prodrug in brain or sciatic nerve ([3]; IV, any time point): No intact prodrug was quantifiable
- Cmax ([3]; read-out: intact prodrug Cmax in plasma, IV, 10 mg/kg equivalent): 0.2 µM
- tissue/plasma ratio ([3]; sciatic nerve, IV): 0.21
- fold lower 2-PMPA level after IV as compared to IN ([3]; sciatic nerve): 5 fold
- Plasma stability % remaining @60 min Human [4]: 42%

SMILES: O=C(O)CCC(CP(=O)(O)O)C(=O)O (stereo not shown) [Compound 2-PMPA, 2-(Phosphonomethyl)pentanedioic acid]
- oral bioavailability (F) [5]: < 2%
- plasma exposure (AUC) ([6]; IN route): 79.1 µM·h
- plasma exposure (AUC) ([6]; intraperitoneal (IP) route): 77.1 µM·h
